Drawing on patent US12655116B2, “Substituted isophthalic acid diamides” (Bayer Aktiengesellschaft, priority 2020, dated 2026), this text covers pest or weed control for one compound.

In test [1] the test system is ABUTH. The test can be described thus: Pre-emergence herbicidal action against ABUTH. In kind it is in vivo, Abutilon theophrasti. Particulars: Abutilon theophrasti, 504 h, 80 g/ha, scored visually after 3 weeks vs untreated controls (100% = plants have died, 0% = like control plants). In outline:
(§1)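 Herbicidal effect was assessed 3 weeks after treatment by visual comparison with untreated controls, 100% denoting dead plants. Aqueous WP or EC preparations had been applied at 600 to 800 l/ha with 0.2% wetting agent to the soil covering freshly sown seeds.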

For test [2], the system named is ALOMY. The test can be described thus: Pre-emergence herbicidal action against ALOMY. In kind it is in vivo, Alopecurus myosuroides. Particulars: Alopecurus myosuroides, 504 h; 80 g/ha, pre-emergence, scored visually after 3 weeks vs untreated controls (100% = plants have died, 0% = like control plants). In outline: as §1
The test system of test [3] is AMARE. Nature of the test: Pre-emergence herbicidal action against AMARE. The class given is in vivo, Amaranthus retroflexus. Particulars: Amaranthus retroflexus, 504 h, scored visually after 3 weeks vs untreated controls, 100% = plants have died, 0% = like control plants. A digest of the protocol:
as §1

Test [4] has as its system AVEFA. The test can be described thus: Pre-emergence herbicidal action against AVEFA. In kind it is in vivo, Avena fatua. As to conditions: Avena fatua, 504 h; 80 g/ha, pre-emergence. In outline:
as §1

Test [5] relates to ECHCG. The test can be described thus: Pre-emergence herbicidal action against ECHCG. In kind it is in vivo, Echinochloa crus-galli. As to conditions: Echinochloa crus-galli, 504 h, 80 g/ha. A digest of the protocol:
as §1

Test [6] deals with HORMU. The test can be described thus: Pre-emergence herbicidal action against HORMU. The class given is in vivo, Hordeum murinum. Particulars: Hordeum murinum, 504 h; 80 g/ha, pre-emergence. The source says: Seeds of monocotyledonous and dicotyledonous weed plants and crop plants are laid out in sandy loam soil in wood-fiber pots and covered with soil. The compounds of the invention, formulated in the form of wettable powders (WP) or as emulsion concentrates (EC), are then applied to the surface of the covering soil in the form of an aqueous suspension or emulsion at a water application rate equivalent to 600 to 800 l/ha, with addition of 0.2% wetting agent. After the treatment, the pots are placed in a greenhouse and kept under good growth conditions for the trial plants. The damage to the test plants is scored visually after a test period of 3 weeks by comparison with untreated controls (herbicidal activity in percent (%): 100% activity=the plants have died, 0% activity=like control plants). […] The tables below illustrate, in an illustrative manner, the post-emergence herbicidal action of the compounds of the invention, the herbicidal activity being stated in percent.

The test system of test [7] is MATIN. Nature of the test: Pre-emergence herbicidal action against MATIN. In kind it is in vivo, Matricaria inodora. Particulars: Tripleurospermum inodorum, 504 h, dosage 80 g/ha. A digest of the protocol:
as §1

The subject of test [8] is SETVI. Nature of the test: Pre-emergence herbicidal action against SETVI. Particulars: Setaria viridis, 504 h, dosage 80 g/ha. The class given is in vivo, Setaria viridis. A digest of the protocol:
as §1

For test [9], the system named is STEME. The test can be described thus: Pre-emergence herbicidal action against STEME. As to conditions: Stellaria media, 504 h, dosage 80 g/ha. In kind it is in vivo, Stellaria media. In outline:
as §1

For test [10], the system named is VERPE. Nature of the test: Pre-emergence herbicidal action against VERPE. In kind it is in vivo, Veronica persica. As to conditions: Veronica persica, 504 h. A digest of the protocol:
as §1

Test [11] relates to DIGSA. Nature of the test: Pre-emergence herbicidal action against DIGSA. The class given is in vivo, Digitaria sanguinalis. As to conditions: Digitaria sanguinalis, 504 h, dosage 80 g/ha. A digest of the protocol: as §1
Test [12] has as its system ABUTH. The test can be described thus: Post-emergence herbicidal action against ABUTH. In kind it is in vivo, Abutilon theophrasti. As to conditions: Abutilon theophrasti, 504 h, visual assessment about 3 weeks after treatment vs untreated controls. In outline: (§2)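 Herbicidal effect was scored visually in percent after about 3 weeks in the greenhouse. Plants had been raised in sandy loam and treated post-emergence at the one-leaf stage with formulated compound at 600 to 800 l/ha water plus 0.2% wetting agent.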

For test [13], the system named is ALOMY. Nature of the test: Post-emergence herbicidal action against ALOMY. The class given is in vivo, Alopecurus myosuroides. Particulars: Alopecurus myosuroides, 504 h, dosage 20 g/ha, visual assessment about 3 weeks after treatment vs untreated controls. A digest of the protocol:
as §2

In test [14] the test system is AMARE. Nature of the test: Post-emergence herbicidal action against AMARE. In kind it is in vivo, Amaranthus retroflexus. As to conditions: Amaranthus retroflexus, 504 h, 20 g/ha, visual assessment about 3 weeks after treatment, 100% = plants have died, 0% = like control plants. A digest of the protocol: as §2
Test [15] has as its system AVEFA. The test can be described thus: Post-emergence herbicidal action against AVEFA. The class given is in vivo, Avena fatua. As to conditions: Avena fatua, 504 h, 20 g/ha, visual assessment about 3 weeks after treatment, 100% = plants have died, 0% = like control plants. A digest of the protocol: as §2
Test [16] has as its system ECHCG. Nature of the test: Post-emergence herbicidal action against ECHCG. Particulars: Echinochloa crus-galli, 504 h, dosage 20 g/ha. The class given is in vivo, Echinochloa crus-galli. A digest of the protocol: as §2
The subject of test [17] is SETVI. Nature of the test: Post-emergence herbicidal action against SETVI. Particulars: Setaria viridis, 504 h, dosage 20 g/ha. In kind it is in vivo, Setaria viridis. In outline: as §2
In test [18] the test system is STEME. Nature of the test: Post-emergence herbicidal action against STEME. Particulars: Stellaria media, 504 h. In kind it is in vivo, Stellaria media. A digest of the protocol:
as §2

In test [19] the test system is DIGSA. The test can be described thus: Post-emergence herbicidal action against DIGSA. In kind it is in vivo, Digitaria sanguinalis. As to conditions: Digitaria sanguinalis, 504 h. In outline: as §2

With `CNC(=O)c1c(Cl)ccc(C(=O)Nc2nnnn2C)c1C` [Example 1-4], the pest or weed control (in general, the degree to which the test organism was suppressed or injured, in per cent) at 80 g/ha amounted to 100% in test [1]; 80% in test [2]; 100% in [3] (80 g/ha); 90% in [4]; 90% in [5]; 80% in [6]. Besides, the pest or weed control at 80 g/ha came out at 100% in test [7]; 100% in test [8]; 90% in test [9]; 90% in [10] (dosage 80 g/ha); 100% in test [11]. Also, the pest or weed control at 20 g/ha in test [3] (20 g/ha) was determined as 90%; in [10] (dosage 20 g/ha) it was 80%; in test [12] (dosage 20 g/ha), 90%; in test [13], 80%; in test [14] it was 90%; in test [15] it was 80%. The pest or weed control at 20 g/ha in test [16] came out at 100%; in test [17], 80%; in [18] (20 g/ha) it was 90%; in test [19] (20 g/ha) it was 90%. For the same compound, the pest or weed control at 5 g/ha in [12] (dosage 5 g/ha) was 90%; in test [18] (dosage 5 g/ha) it was 80%; in test [19] (5 g/ha) it was 80%.
